The source of these data is ChEMBL document CHEMBL6083238, “Design, synthesis and biological evaluation of novel benzocoumarin derivatives as potent inhibitors of MAO-B activity” (Bioorg Med Chem Lett, 2024).

Data set [1] deals with T1, MAO-A (amine oxidase [flavin-containing] A) (Homo sapiens, UniProt P21397).
T1 sequence (P21397 whole entry): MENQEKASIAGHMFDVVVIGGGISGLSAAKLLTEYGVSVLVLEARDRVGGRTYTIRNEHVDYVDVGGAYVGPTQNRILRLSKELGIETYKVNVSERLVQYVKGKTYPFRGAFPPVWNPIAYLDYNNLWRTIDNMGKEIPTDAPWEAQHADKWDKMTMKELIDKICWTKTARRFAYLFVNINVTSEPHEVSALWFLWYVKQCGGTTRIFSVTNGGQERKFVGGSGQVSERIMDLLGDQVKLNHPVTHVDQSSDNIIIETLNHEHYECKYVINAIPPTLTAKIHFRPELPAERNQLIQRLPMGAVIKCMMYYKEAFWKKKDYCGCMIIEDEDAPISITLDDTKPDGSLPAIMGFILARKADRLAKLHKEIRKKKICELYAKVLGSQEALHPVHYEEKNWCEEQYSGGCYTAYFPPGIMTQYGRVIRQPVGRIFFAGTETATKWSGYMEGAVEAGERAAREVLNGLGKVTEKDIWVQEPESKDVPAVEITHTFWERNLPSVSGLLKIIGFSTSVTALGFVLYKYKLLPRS
Put plainly: in vitro. As to conditions: human MAO-A enzyme, probe p-tyramine.
Description: Inhibition of human MAO-A using p-tyramine as substrate at 100 uM by amplex red staining based fluorometric analysis relative to control

Data set [2] deals with T2, Amine oxidase [flavin-containing] B (Homo sapiens, UniProt P27338).
T2 sequence (P27338 whole entry): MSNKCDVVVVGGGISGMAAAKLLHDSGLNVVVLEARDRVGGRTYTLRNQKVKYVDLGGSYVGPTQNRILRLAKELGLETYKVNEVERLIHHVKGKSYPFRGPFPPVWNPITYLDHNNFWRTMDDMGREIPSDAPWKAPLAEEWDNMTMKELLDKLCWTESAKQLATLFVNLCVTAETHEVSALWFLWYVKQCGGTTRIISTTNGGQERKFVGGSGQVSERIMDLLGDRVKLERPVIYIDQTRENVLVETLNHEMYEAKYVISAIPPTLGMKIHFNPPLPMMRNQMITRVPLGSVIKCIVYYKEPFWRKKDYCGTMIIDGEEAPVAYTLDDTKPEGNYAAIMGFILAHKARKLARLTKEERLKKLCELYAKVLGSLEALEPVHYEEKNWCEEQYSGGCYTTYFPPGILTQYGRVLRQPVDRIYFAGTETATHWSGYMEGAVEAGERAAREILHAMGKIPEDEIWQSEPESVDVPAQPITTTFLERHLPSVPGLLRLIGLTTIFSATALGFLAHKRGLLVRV
Description: Inhibition of human MAO-B using p-tyramine as substrate by amplex red staining based fluorometric analysis

The target in data set [3] is T3, Amine oxidase [flavin-containing] A (Homo sapiens, UniProt P21397).
T3 sequence (P21397 whole entry): T1 sequence (P21397 whole entry)
Description: Inhibition of human MAO-A using p-tyramine as substrate by amplex red staining based fluorometric analysis

In data set [1], `COc1ccc(-c2cc3ccc4ccccc4c3oc2=O)cc1` had an inhibition at 100 µM of 15.3%.
For `COc1ccc(-c2cc3ccc4ccccc4c3oc2=O)cc1OC`, the inhibition at 100 µM in data set [1] was found to be 24%. Also, in data set [2], 0.241 µM corresponded to half-maximal inhibition (IC50).
On the same counts, the results for `COc1ccc(-c2cc3cc4ccccc4cc3oc2=O)cc1` are 3.85% and 48.1 µM.
Consider `CC(=O)Oc1ccc(-c2cc3cc4ccccc4cc3oc2=O)cc1OC(C)=O`, for which the 50% inhibitory concentration (IC50) in data set [3] stood at 97.2 µM; in data set [2], 54.4 µM.
Regarding `CC(=O)Oc1ccc(-c2cc3ccc4ccccc4c3oc2=O)cc1OC(C)=O`, the IC50 in data set [3] worked out at 78.3 µM; in data set [2], 13.9 µM.
Compound `COc1ccc(-c2cc3cc4ccccc4cc3oc2=O)cc1OC` gave an inhibition at 100 µM in data set [1] of 36.6%. The compound also returned a half-inhibitory concentration (IC50) in data set [2] of 1.41 µM.

Broadly, the inhibition is the change of the read-out against control, counted positive when it falls. A low value points to a weak effect. As a reminder, the IC50 is the concentration at which inhibition is half-maximal. A high value points to a need for much substance.
